This passage reports IC50 results from US10710986B2, “PD-1/PD-L1 inhibitors” (Gilead Sciences, Inc., priority 2018, dated 2020).

Each structure is given as a SMILES string.

Chain of PD-1/PD-L1 (Q9NZQ7 19-238): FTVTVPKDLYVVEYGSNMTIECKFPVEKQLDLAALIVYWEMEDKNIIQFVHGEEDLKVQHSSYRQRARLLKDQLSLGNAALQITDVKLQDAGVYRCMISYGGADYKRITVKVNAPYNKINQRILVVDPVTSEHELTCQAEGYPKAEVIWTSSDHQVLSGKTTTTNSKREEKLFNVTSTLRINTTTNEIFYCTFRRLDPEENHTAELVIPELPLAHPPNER

The assay addresses PD-1/PD-L1 (Homo sapiens (Human), UniProt Q9NZQ7). In words: PD-1/PD-L1 biochemical protein-protein interaction assay (ALPHA). The settings on record: 0.3 nM His tagged PD-L1, 2.5 nM biotinylated Fc-PD-1, 60 minutes at 25° C., read-out: IC50 PD-L1-PD1.
On to `COc1nc(-c2cccc(-c3cccc(-c4cnc(CNC[C@@H]5CCC(=O)N5)c(OC)n4)c3Cl)c2Cl)ccc1CNC[C@@H]1CCC(=O)N1` [compound 126, (S)-5-((((6-(2,2′-dichloro-3′-(6-methoxy-5-(((((S)-5-oxopyrrolidin-2-yl)methyl)amino)methyl)pyrazin-2-yl)-[1,1′-biphenyl]-3-yl)-2-methoxypyridin-3-yl)methyl)amino)methyl)pyrrolidin-2-one], for which the IC50 stood at 272 pM.
Turning to `COc1nc(-c2cccc(-c3cccc(-c4cnc(C5=NCC(C)(C)N5)c(OC)n4)c3Cl)c2Cl)cnc1C1=NCC(C)(C)N1` [compound 127], the IC50 worked out at 64 pM.
Then `COc1nc(-c2cccc(-c3cccc(-c4cnc(C5=NCC(O)CN5)c(OC)n4)c3Cl)c2Cl)cnc1C1=NCC(O)CN1` (stereo not shown) [compound 128], with 557 pM; and `COc1nc(-c2cccc(-c3cccc(-c4cnc(C5=NC[C@@H](C)N5)c(OC)n4)c3Cl)c2Cl)cnc1C1=NC[C@@H](C)N1` [compound 129], with 64 pM; and `COc1nc(-c2cccc(-c3cccc(-c4cnc(CN5CC[C@@H](O)C5)c(OC)n4)c3Cl)c2Cl)cnc1CN1CC[C@@H](O)C1` [compound 130], with 185 pM.
Then `COc1nc(-c2cccc(-c3cccc(-c4cnc(CN5CC(O)C5)c(OC)n4)c3Cl)c2Cl)cnc1CN1CC(O)C1` [compound 131], with 309 pM; and `COc1nc(-c2cccc(-c3cccc(-c4cnc(CN5CC[C@H](O)C5)c(OC)n4)c3Cl)c2Cl)cnc1CN1CC[C@H](O)C1` [compound 132], with 753 pM; and `COc1nc(-c2cccc(-c3cccc(-c4cnc(C5=NC[C@H](CO)N5)c(OC)n4)c3Cl)c2Cl)cnc1C1=NC[C@H](CO)N1` [compound 133], with 64 pM.
Then `COc1nc(-c2cccc(-c3cccc(-c4cnc(C5=NC[C@@H](CO)N5)c(OC)n4)c3Cl)c2Cl)cnc1C1=NC[C@@H](CO)N1` [compound 134], with 64 pM.
As for `COc1nc(-c2cccc(-c3cccc(-c4cnc(CN)c(OC)n4)c3Cl)c2Cl)cnc1CN` [compound 135], the half-maximal inhibitory concentration (IC50) amounted to 733 pM.
As for `COc1nc(-c2cccc(-c3cccc(-c4cnc(CN5CC6(CCC(=O)N6)C5)c(OC)n4)c3Cl)c2Cl)cnc1CN1CC2(CCC(=O)N2)C1` [compound 136], the figure is 147 pM.
Consider `COc1nc(-c2cccc(-c3cccc(-c4cnc(CNC[C@@H](O)CC(=O)O)c(OC)n4)c3Cl)c2Cl)cnc1CNC[C@@H](O)CC(=O)O` [compound 137], for which the IC50 turned out to be 168 pM.
As for `COc1nc(-c2cccc(-c3cccc(-c4cnc(CNCCO)c(OC)n4)c3Cl)c2Cl)cnc1CNCCO` [compound 140], the figure is 260 pM; as for `COc1nc(-c2cccc(-c3cccc(-c4cnc(C5=NCCN5)c(OC)n4)c3Cl)c2Cl)cnc1C1=NCCN1` [compound 141], 64 pM; as for `COc1nc(-c2cccc(-c3cccc(-c4cnc(CN5CC[C@](C)(O)C5)c(OC)n4)c3Cl)c2Cl)cnc1CN1CC[C@](C)(O)C1` [compound 142], 200 pM.
As for `COc1nc(-c2cccc(-c3cccc(-c4cnc(CN[C@@H]5CCOC5)c(OC)n4)c3Cl)c2Cl)cnc1CN[C@@H]1CCOC1` [compound 143], the figure is 410 pM.
Consider `COc1nc(-c2cccc(-c3cccc(-c4cnc(CN[C@H]5CCOC5)c(OC)n4)c3Cl)c2Cl)cnc1CN[C@H]1CCOC1` [compound 144], for which the concentration for half-maximal inhibition (IC50) was 240 pM.
As for `COc1nc(-c2cccc(-c3cccc(-c4cnc(CN5CC(CO)C5)c(OC)n4)c3Cl)c2Cl)cnc1CN1CC(CO)C1` [compound 145], the IC50 came out at 100 pM.
As for `COc1nc(-c2cccc(-c3cccc(-c4cnc(CN5CCC(C)(O)C5)c(OC)n4)c3Cl)c2Cl)cnc1CN1CCC(C)(O)C1` (stereo not shown) [compound 146], the figure is 130 pM; as for `COc1nc(-c2cccc(-c3cccc(-c4cnc(CN5CC(C)(O)C5)c(OC)n4)c3Cl)c2Cl)cnc1CN1CC(C)(O)C1` [compound 147], 60 pM; as for `COc1nc(-c2cccc(-c3cccc(-c4cnc(CN5CC(C)(CO)C5)c(OC)n4)c3Cl)c2Cl)cnc1CN1CC(C)(CO)C1` [compound 148], 60 pM.
`COc1nc(-c2cccc(-c3cccc(-c4cnc(CN[C@H]5C[C@H](CO)C5)c(OC)n4)c3Cl)c2Cl)cnc1CN[C@H]1C[C@H](CO)C1` [compound 149]: the IC50 was 270 pM.
For the compound `COc1nc(-c2cccc(-c3cccc(-c4cnc(CN[C@H]5C[C@@H](CO)C5)c(OC)n4)c3Cl)c2Cl)cnc1CN[C@H]1C[C@@H](CO)C1` [compound 150], the half-maximal inhibitory concentration (IC50) worked out at 200 pM.
For `COc1nc(-c2cccc(-c3cccc(-c4ccc(CN5CC6(CCC(=O)N6)C5)c(C#N)c4)c3Cl)c2Cl)cnc1CNC[C@@H]1CCC(=O)N1` [compound 151], the IC50 amounted to 684 pM.
As for `COc1nc(-c2cccc(-c3cccc(-c4ccc(CNC[C@@H]5CCC(=O)N5)c(C#N)c4)c3Cl)c2Cl)cnc1CNC[C@@H]1CCC(=O)N1` [compound 152], the figure is 73 pM.
As for `COc1nc(-c2cccc(-c3cccc(-c4ccc(CN5CC(O)C5)c(C#N)c4)c3Cl)c2Cl)cnc1CNC[C@@H]1CCC(=O)N1` [compound 153], the figure is 396 pM; as for `COc1nc(-c2cccc(-c3cccc(-c4ccc(CN5CC(C)(CO)C5)c(C#N)c4)c3Cl)c2Cl)cnc1CNC[C@@H]1CCC(=O)N1` [compound 154], 126 pM; as for `COc1nc(-c2cccc(-c3cccc(-c4cnc(CNC[C@@H]5CCC(=O)N5)c(OC)n4)c3Cl)c2Cl)ccc1CNCc1ccc2[nH]c(C)cc2c1` [compound 155], 1650 pM.
As for `COc1nc(-c2cccc(-c3cccc(-c4cnc(CNC[C@@H]5CCC(=O)N5)c(OC)n4)c3Cl)c2Cl)ccc1CN1CC(C)(CO)C1` [compound 156], the figure is 84 pM; as for `COc1nc(-c2cccc(-c3cccc(-c4cnc(CNC[C@@H]5CCC(=O)N5)c(OC)n4)c3Cl)c2Cl)ccc1CN1CC(CO)C1` [compound 157], 64 pM.
Consider `COc1nc(-c2cccc(-c3cccc(-c4cnc(CNC[C@@H]5CCC(=O)N5)c(OC)n4)c3Cl)c2Cl)ccc1CN1CCC(C)(O)CC1` [compound 158], for which the IC50 turned out to be 162 pM.
On to `COc1nc(-c2cccc(-c3cccc(-c4cnc(CNC[C@@H]5CCC(=O)N5)c(OC)n4)c3Cl)c2Cl)ccc1CN1CC[C@](C)(O)C1` [compound 159], for which the IC50 turned out to be 150 pM.
As for `COc1nc(-c2cccc(-c3cccc(-c4cnc(CNC[C@@H]5CCC(=O)N5)c(OC)n4)c3Cl)c2Cl)ccc1CN1CCC(CO)CC1` [compound 160], the figure is 128 pM; as for `COc1nc(-c2cccc(-c3cccc(-c4cnc(CNC[C@@H]5CCC(=O)N5)c(OC)n4)c3Cl)c2Cl)ccc1CNCc1nc(=O)o[nH]1` [compound 161], 167 pM; as for `COc1nc(-c2cccc(-c3cccc(-c4cnc(CNC[C@@H]5CCC(=O)N5)c(OC)n4)c3Cl)c2Cl)ccc1CNC1CCOCC1` [compound 162], 116 pM.
On to `COc1nc(-c2cccc(-c3cccc(-c4cnc(CNC[C@@H]5CCC(=O)N5)c(OC)n4)c3Cl)c2Cl)ccc1CN1CCC(C(N)=O)CC1` [compound 163], for which the IC50 was determined as 177 pM.
In the case of `COc1nc(-c2cccc(-c3cccc(-c4cnc(CNC[C@@H]5CCC(=O)N5)c(OC)n4)c3Cl)c2Cl)ccc1CN1CC(O)C1` [compound 164], the IC50 worked out at 122 pM.
As for `COc1nc(-c2cccc(-c3cccc(-c4cnc(CNC[C@@H]5CCC(=O)N5)c(OC)n4)c3Cl)c2Cl)ccc1CN[C@@H]1COC[C@H]1O` [compound 165], the figure is 187 pM; as for `COc1nc(-c2cccc(-c3cccc(-c4cnc(CNC[C@@H]5CCC(=O)N5)c(OC)n4)c3Cl)c2Cl)ccc1CN[C@H]1CNC(=O)C1` [compound 166], 233 pM.
As to `COc1nc(-c2cccc(-c3cccc(-c4cnc(CNC[C@@H]5CCC(=O)N5)c(OC)n4)c3Cl)c2Cl)ccc1CN[C@@H]1CNC(=O)C1` [compound 167], the IC50 worked out at 262 pM.
Then `COc1nc(-c2cccc(-c3cccc(-c4cnc(CNC[C@@H]5CCC(=O)N5)c(OC)n4)c3Cl)c2Cl)ccc1CN1CC2(CNC(=O)N2)C1` [compound 168], with 196 pM; and `COc1nc(-c2cccc(-c3cccc(-c4cnc(CNC[C@@H]5CCC(=O)N5)c(OC)n4)c3Cl)c2Cl)ccc1CN[C@H]1CCNC1=O` [compound 169], with 344 pM; and `COc1nc(-c2cccc(-c3cccc(-c4cnc(CNC[C@@H]5CCC(=O)N5)c(OC)n4)c3Cl)c2Cl)ccc1CN[C@@H]1CCOC1` [compound 170], with 227 pM.
Then `COc1nc(-c2cccc(-c3cccc(-c4cnc(CNC[C@@H]5CCC(=O)N5)c(OC)n4)c3Cl)c2Cl)ccc1CN[C@H]1CCOC1` [compound 171], with 208 pM; and `COc1nc(-c2cccc(-c3cccc(-c4cnc(CNC[C@H]5C[C@@H](O)C5)c(OC)n4)c3Cl)c2Cl)cnc1CNC[C@@H]1CCC(=O)N1` [compound 172], with 222 pM.
Then `COc1nc(-c2cccc(-c3cccc(-c4cnc(CN5CC(OC)C5)c(OC)n4)c3Cl)c2Cl)cnc1CNC[C@@H]1CCC(=O)N1` [compound 173], with 209 pM; and `COc1nc(-c2cccc(-c3cccc(-c4cnc(CN5CCC(C)(O)C5)c(OC)n4)c3Cl)c2Cl)cnc1CNC[C@@H]1CCC(=O)N1` (stereo partly shown) [compound 174], with 219 pM.
Turning to `COc1nc(-c2cccc(-c3cccc(-c4cnc(CN5CC(C)(CO)C5)c(OC)n4)c3Cl)c2Cl)cnc1CNC[C@@H]1CCC(=O)N1` [compound 175], the IC50 is 110 pM.
As to `COc1nc(-c2cccc(-c3cccc(-c4cnc(CN5CC(CO)C5)c(OC)n4)c3Cl)c2Cl)cnc1CNC[C@@H]1CCC(=O)N1` [compound 176], the IC50 came to 111 pM.
As for `COc1nc(-c2cccc(-c3cccc(-c4cnc(CNC5CCC(F)C5)c(OC)n4)c3Cl)c2Cl)cnc1CNC[C@@H]1CCC(=O)N1` (stereo partly shown) [compound 177], the IC50 worked out at 330 pM.
Then `COc1nc(-c2cccc(-c3cccc(-c4cnc(CN[C@@H]5C[C@@H]5F)c(OC)n4)c3Cl)c2Cl)cnc1CNC[C@@H]1CCC(=O)N1` [compound 178], with 553 pM.
On to `COc1nc(-c2cccc(-c3cccc(-c4cnc(CNC[C@@H]5CCC(=O)N5)c(OC)n4)c3Cl)c2Cl)cnc1CNCC1CC1` [compound 179], for which the IC50 was 211 pM.

Usually IC50 stands for the midpoint of a concentration-inhibition curve.
